How the values were obtained:
[1] = target: T1, mutant ALS protein of Sr line (Oryza sativa subsp. japonica, UniProt Q6K2E8); test: Herbicide sensitivity of partially purified ALS protein (ALS activity inhibition), Sr line; format: biochemical, Oryza sativa var. Kinmaze; conditions: read-out: I50 (nM) Sr; partially purified ALS, 30° C., probit analysis
T1 construct: other: partially purified ALS, 30° C., probit analysis
Experimental: (§1) First, 200 g or more of resistant mutant was prepared by a liquid culture method (no supplementation with bispyribac-sodium), using a composition as shown in Table 3 excluding Gelrite. Then, about 150 g of the resistant mutant was homogenized using Hiscotron in a volume of buffer-1 [100 mM potassium phosphate buffer (pH 7.5) containing 20% (v/v) glycerol, […] thiamin pyrophosphate (TPP), 10 μM flavin adenine dinucleotide (FAD), 0.5 mM MgCl2, and a volume of polyvinyl polypyrrolidone one-tenth that of tissue volume] 3-fold greater than tissue volume. The homogenate was filtered through nylon gauze, and then centrifuged at 15000×g for 20 minutes. Ammonium sulfate was added to the centrifuged supernatant to 50% saturation, and then allowed to stand in ice for approximately 1 hour. The mixture was again centrifuged at 15000×g for 20 minutes, and then the precipitated fraction was dissolved in approximately 30 ml of buffer-2 [10 mM Tris hydrochloric acid buffer (pH 7.5) containing 20% (v/v) glycerol, 0.5 mM TPP and 0.5 mM MgCl2]. The mixture was again centrifuged at 15000×g for 20 minutes, and then the supernatant fraction was applied to a Sephadex G-25 (Amersham Bioscience). About 40 ml of the fraction that had passed through the column was collected as a crude enzyme solution.
(§2) Next, the protein concentration of the crude enzyme solution was measured by the Bradford method according to the manual of Bio-Rad Protein Assay. The crude enzyme solution was then filtered through a Whatman filter (Whatman), and then the crude enzyme solution in an appropriate protein amount (10 to 15 ml) was applied to three vertically-connected HiTrap Q columns (Amersham Bioscience) using a FPLC device (Amersham Bioscience). After protein component was adsorbed using HiTrap Q, unadsorbed fractions were washed out using buffer-2 having a volume 3 to 5 fold greater than the bed volume. Then, the adsorbed protein component was eluted using an eluate having a volume 10 fold greater than the bed volume (150 ml). Here, the eluate was prepared by dissolving KCl with a linear concentration gradient (0 to 0.4 M) into buffer-2. The eluate containing the eluted protein component was apportioned, 5 ml each, into a plurality of test tubes for apportioning. Further, to stabilize ALS protein contained in the eluted protein component, 0.5 ml of buffer-2 containing 20 mM sodium pyruvate had been previously added to each test tube for apportioning.
(§3) ALS activity resulting from the mutant ALS protein contained in the eluted fractions apportioned into each test tube for apportioning was measured as follows. A reaction solution to be used in a measurement reaction was prepared by mixing an eluted fraction to be measured with a solution comprising 20 mM sodium pyruvate, 0.5 mM TPP, 0.5 mM MgCl2, 10 μM FAD and 20 mM potassium phosphate buffer (pH 7.5). One ml of this reaction solution was used. After the eluted fraction to be measured was added, the measurement reaction was performed at 30° C. for 40 to 60 minutes. Then, the reaction was stopped by addition of 0.1 ml of 6N sulfuric acid (or 0.25 N sodium hydroxide).
(§4) After the reaction was stopped, the reaction solution was incubated at 60° C. for 10 minutes, thereby converting acetolactate contained in the reaction solution to acetoin.
(§5) Then, to quantify acetoin contained in the reaction solution, 1 ml of 0.5% (w/v) creatine and 1 ml of 5% (w/v) α-naphthol dissolved in 2.5 N sodium hydroxide was added to the reaction solution, followed by incubation at 37° C. for 10 minutes. Acetoin was then quantified by color comparison of the absorbance (at 525 nm) of the reaction solution, thereby evaluating ALS activity. In addition, since the reaction solution contained a small amount of sodium pyruvate, reaction time 0 was used as control.
(§6) Using the enzyme solution containing the mutant ALS protein, sensitivity of the mutant ALS protein to bispyribac-sodium, chlorsulfuron and imazaquin was examined. […]

[2] = system: mutant ALS protein of Sr line; test: as above; format: biochemical, Oryza sativa var. Kinmaze; conditions: I50 of the resistant mutant divided by I50 of the wild type
Experimental: as §1, §2, §3, §4, §5, §6

[3] = target: T2, GST fusion S627I mutant ALS protein (Oryza sativa subsp. japonica, UniProt Q6K2E8, S627I); test: Herbicide sensitivity of ALS protein expressed in E. coli (crude enzyme solution), S627I; format: biochemical, rice (Oryza sativa var. Kinmaze); conditions: for RS ratio: S627I mutant vs wild type
T2 construct: an expression vector having the full-length wild type ALS cDNA incorporated into the Eco RI site of pGEX-2T; made in house; host or cells: E. coli JM109, pGEX 2T(ALS-S627I mutant); crude supernatant
T2 sequence (Q6K2E8 44-644 S627I): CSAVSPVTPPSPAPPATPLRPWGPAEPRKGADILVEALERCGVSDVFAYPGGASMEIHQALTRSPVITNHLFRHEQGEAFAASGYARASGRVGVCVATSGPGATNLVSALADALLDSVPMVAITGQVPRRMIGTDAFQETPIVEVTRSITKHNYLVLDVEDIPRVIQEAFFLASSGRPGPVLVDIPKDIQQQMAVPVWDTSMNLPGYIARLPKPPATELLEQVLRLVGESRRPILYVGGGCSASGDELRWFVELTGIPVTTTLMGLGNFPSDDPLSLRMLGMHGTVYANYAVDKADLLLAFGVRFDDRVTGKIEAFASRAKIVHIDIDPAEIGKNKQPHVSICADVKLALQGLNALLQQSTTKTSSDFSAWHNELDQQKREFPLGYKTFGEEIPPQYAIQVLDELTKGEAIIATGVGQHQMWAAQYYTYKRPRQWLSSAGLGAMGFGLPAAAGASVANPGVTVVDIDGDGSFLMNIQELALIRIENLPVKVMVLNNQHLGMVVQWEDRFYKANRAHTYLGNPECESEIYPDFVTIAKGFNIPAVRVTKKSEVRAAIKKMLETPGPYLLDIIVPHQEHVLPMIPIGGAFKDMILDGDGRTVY
Experimental: as §3, §4, §5
E. coli transformed with pGEX-2T(ALS-wild) constructed in Example 3(5), E. coli transformed with pGEX-2T(ALS-W548L mutant) constructed in Example 5, E. coli transformed with pGEX-2T(ALS-S627I mutant) constructed in Example 5, E. coli transformed with pGEX-2T(ALS P171H mutant) constructed in Example 6, E. coli transformed with pGEX-2T(ALS R172S mutant) constructed in Example 6, E. coli transformed with pGEX-2T(ALS P171H, R172S mutant) constructed in Example 7, E. coli transformed with pGEX-2T(ALS-P171H, W548L mutant) constructed in Example 8, E. coli transformed with pGEX-2T(ALS-P171H, S627I mutant) constructed in Example 8, and E. coli transformed with pGEX-2T(ALS-P171H, W548L, S627I mutant) constructed in Example 9 were respectively shake-cultured (pre-culture) at 27° C. in 2 ml of LB liquid medium containing ampicillin. These types of E. coli were respectively cultured in 250 ml of LB liquid medium containing ampicillin using 1 ml of the pre-culture solution. After culturing overnight, 1 mM IPTG was added to the media, and then culturing was performed for a further 3 to 4 hours, so that the expression of GST fusion protein was induced. In addition, the cells were stored at −80° C. after washing.
Preparation and purification of ALS from E. coli were performed by the following method. First, the pellet of the transformant E. coli stored at −80° C. was suspended in ALS extraction buffer (potassium phosphate buffer (pH 7.5) containing 30% glycerol and 0.5 mM MgCl2). Specifically, 2.5 ml of the buffer was added to the pellet obtained from 50 ml of the culture solution. The suspension was subjected to ultrasonication (Heat Systems-Ultrasonics, Sonicator W-225R, micro chip, output control 8, interval of approximately 1 second, twice (40 seconds each)), and subjected to centrifugation at 15000×g, 4° C. for 20 minutes, thereby obtaining the supernatant as a crude enzyme solution.
Herbicide sensitivity of the wild type ALS protein and that of mutant ALS protein were examined using the 9 types of crude enzyme solutions obtained in Example 10. Herbicide sensitivity test was performed according to procedures almost the same as those in Example 2. However, in this example, reaction temperature was 37° C., reaction time was 30 minutes, and 10 mM valine was added to the reaction solution to inhibit ALS activity derived from E. coli. Further, three types of herbicides, bispyribac-sodium, pyrithiobac-sodium, and pyriminobac, were used as PC herbicides; chlorsulfuron was used as a sulfonylurea herbicide; and imazaquin was used as an imidazolinon herbicide. […]

T1 sequence (Q6K2E8 whole entry W548L/S627I, form open): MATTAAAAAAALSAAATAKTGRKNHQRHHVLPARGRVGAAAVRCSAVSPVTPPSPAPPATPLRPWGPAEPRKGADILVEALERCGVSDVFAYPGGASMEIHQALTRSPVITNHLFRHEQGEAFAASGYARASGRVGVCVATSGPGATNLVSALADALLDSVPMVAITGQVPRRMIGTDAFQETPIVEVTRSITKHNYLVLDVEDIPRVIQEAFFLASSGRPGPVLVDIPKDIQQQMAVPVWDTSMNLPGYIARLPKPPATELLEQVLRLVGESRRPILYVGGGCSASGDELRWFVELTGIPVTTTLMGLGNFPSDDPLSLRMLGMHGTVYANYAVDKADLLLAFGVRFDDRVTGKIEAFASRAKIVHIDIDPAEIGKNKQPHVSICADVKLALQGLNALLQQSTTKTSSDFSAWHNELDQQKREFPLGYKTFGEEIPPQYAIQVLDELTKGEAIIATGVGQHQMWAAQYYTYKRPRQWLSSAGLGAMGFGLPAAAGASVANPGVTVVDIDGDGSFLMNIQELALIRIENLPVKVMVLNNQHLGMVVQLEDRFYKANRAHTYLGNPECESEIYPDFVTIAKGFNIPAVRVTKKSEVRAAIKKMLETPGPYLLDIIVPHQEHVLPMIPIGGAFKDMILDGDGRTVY

| SMILES | IC50 [1] [nM] | RS ratio Sr [2] | IC50 [3] [nM] | RS ratio [3] |
| --- | --- | --- | --- | --- |
| COc1cc(OC)nc(Oc2cccc(Oc3nc(OC)cc(OC)n3)c2C(=O)O)n1 [bispyribac-sodium] | 421 | 74.8 | 260 | 41 |
| COc1nc(C)nc(NC(=O)NS(=O)(=O)c2ccccc2Cl)n1 [chlorsulfuron] | 92.8 | 5.36 | 31 | 2.4 |
| CC(C)C1(C)N=C(c2nc3ccccc3cc2C(=O)O)NC1=O (centres unmarked) [imazaquin] | 16700 | 11.3 | 15000 | – |

From patent US8030547B2, “Gene coding for acetolactate synthase” (priority 2002, dated 2011)
